# Assay results taken from article PMC4467398, “Preclinical antitumor activity of ST7612AA1: a new oral thiol-based histone deacetylase (HDAC) inhibitor” (Oncotarget, 2014).
# Entries after “also recorded” stand apart in the source; their conditions may differ.
# Experiments:
# Colon cancer HCT116 = assay: In vitro proliferation assay (sulphorodamine B); format: cell-based; conditions: Homo sapiens, HCT-116, 72 h, mean ± S.E.M.
# NSCLC NCI-H1975 = assay: In vitro proliferation assay (sulphorodamine B); format: cell-based; conditions: Homo sapiens, 72 h, mean ± S.E.M.
# HCT116 tumor xenografts = assay: Western blot of tumor xenografts after oral ST7612AA1; format: in vivo, nude mice; conditions: xenografts collected 24 h after the last oral administration; 80 mg/10 mL/kg qdx5/wx3w
# Method: In order to assess the in vivo effect of ST7612AA1 on the acetylation degree of α-tubulin and histones, and on the expression of other key proteins, HCT116 tumor xenografts (3 samples/group) were excised at different times after the last treatment, and then total protein lysates were prepared through the homogenization of tumor samples in lysis buffer containing 0.5% NP-40, supplemented with 10 μg/mL of protease inhibitor cocktail (Sigma Chemical Co., St. Louis, MO, USA). Determination of the protein concentration and Western Blotting analysis were finally performed as above described for the in vitro experiments. The antibodies used are listed in Supplementary Table 2.
# [1] = tested on: Chronic myeloid leukemia K562; assay: In vitro proliferation assay (sulphorodamine B); format: cell-based; conditions: Homo sapiens, 72 h, mean ± S.E.M.
# [2] = tested on: cell lines derived from epithelial cancers (lung, breast, colon, ovarian) and from leukemias and lymphomas; assay: In vitro proliferation assay, first broad panel (summary); format: cell-based; conditions: first broad panel of human tumor cell lines; read-out: IC50 values, range over the panel
# Method: (§1) Anti-proliferative activity was first assessed on a panel of cell lines derived from solid tumors and hematological cancers and then on a large panel of cell lines derived from mature B-cell lymphomas. […] Lymphoma cells were seeded in 96-wells tissue culture plates in complete medium and were exposed to increasing concentrations of ST7612AA1 for 48 or 72 h; the anti-proliferative activity was assessed using 3-(4,5-dimethylthiazol-2-yl)-2,5-diphenyltetrazolium bromide (MTT). The drug potency was evaluated by means of the “ALLFIT” computer program and defined as IC50 (drug concentration required for 50% inhibition of cell survival).
# Breast cancer MCF-7 = assay: In vitro proliferation assay; format: cell-based; conditions: Homo sapiens, MCF7, 72 h, mean ± S.E.M.
# Method: as §1
# lymphoma cell lines = assay: Detection of apoptotic cells (Annexin V-FITC, flow cytometry); format: cell-based, human; conditions: 250 nM, 72 hrs; eight lymphoma cell lines
# Method: Apoptosis was assessed, on cells treated with DMSO or different doses of ST7612AA1, by Annexin V-FITC apoptosis detection kit (BD Biosciences), according to the manufacturer's recommendations, on a FACScan flow cytometer (BD Biosciences).
# [3] = tested on: acetylation of alpha-tubulin in NCI-H460 NSCLC cells; assay: Western blot with densitometry, tubulin acetylation; format: cell-based, human; conditions: for Acetyl tub./tubulin: NCI-H460, vehicle 0,341
# Method: (§2) For assessing the in vitro effect of ST7612AA1 on acetylation of α-tubulin and histones, NSCLC cells were treated with the test compound at various concentrations (dose-response curve). SAHA 5 μM was used as reference inhibitor. Protein extraction, separation and immunoblotting were performed as previously described. Immunoreactive bands were finally subjected to densitometry analysis by a phosphoimaging system (STORM, Molecular Dynamics), and then the IC50 values were calculated by the “ALLFIT” computer program. The antibodies used are listed in Supplementary Table 2.
# [4] = tested on: Acute myeloid leukemia MV4;11; assay: In vitro proliferation assay (sulphorodamine B); format: cell-based; conditions: Homo sapiens, 72 h, mean ± S.E.M.
# GCB-DLBCL OCI-Ly8 = assay: In vitro proliferation assay (MTT); format: cell-based; conditions: Homo sapiens, 72 h, mean ± S.E.M.
# Method: as §1
# GCB-DLBCL OCI-Ly7 = assay: In vitro proliferation assay (MTT); format: cell-based; conditions: Homo sapiens, 72 h, mean ± S.E.M.
# Method: as §1
# ABC-DLBCL U2932 = assay: In vitro proliferation assay (MTT); format: cell-based; conditions: Homo sapiens, 72 h, mean ± S.E.M.
# Method: as §1
# [5] = tested on: Splenic marginal zone lymphoma SSK41; assay: In vitro proliferation assay (MTT); format: cell-based; conditions: Homo sapiens, 72 h, mean ± S.E.M.
# Method: as §1
# GCB-DLBCL DOHH2 = assay: In vitro proliferation assay (MTT); format: cell-based; conditions: Homo sapiens, DOHH-2, 72 h, mean ± S.E.M.
# Method: as §1
# [6] = tested on: acetylation of histone H4 in NCI-H460 NSCLC cells; assay: Western blot with densitometry, histone H4 acetylation; format: cell-based, human; conditions: for Acetyl H4/H4: vehicle 0,0274
# Method: as §2
# [7] = tested on: Acute myeloid leukemia U937; assay: In vitro proliferation assay (sulphorodamine B); format: cell-based; conditions: Homo sapiens, U-937, 72 h, mean ± S.E.M.
# GCB-DLBCL model DOHH2 = assay: In vivo lymphoma xenograft model; parameters: species or system NOD-SCID mice; conditions: po at days 12, 13, 15, 16, 18, 19 after tumor injection; vs control mice
# Method: The in vivo experiment with lymphoma model was performed in the IOR laboratory according to study protocols approved by the local Cantonal Veterinary Authority (No. 5/2011). At day 1, tumors were established by injecting DOHH2 lymphoma cells (200 μL of PBS, 8×10^6 cells/mouse) into the left flanks of 5-weeks old female NOD-SCID mice (Harlan Laboratories). Tumor size was measured on regular basis and until tumors reached around […] in diameter (day 12). Then, treatments were conducted at day 12, 13, 15, 16, 18, 19. Tumors were measured at 12, 14, 17, 21, 25 days. Tumor volumes were calculated as described above. Mice were sacrificed when physical conditions became critical or when tumors reached a weight of about 0.5 gr. For comparison between a control and a treatment group, an unpaired Mann-Whitney's test was used. A P-value <0.05 was considered significant.
# Ovarian cancer A2780 = assay: In vitro proliferation assay (sulphorodamine B); format: cell-based; conditions: Homo sapiens, 72 h, mean ± S.E.M.
smiles,measurement,setting,value
CC(=O)SCCCCC[C@H](NC(=O)[C@H]1CCC(=O)N1)C(=O)Nc1ccccc1 [ST7612AA1],IC50,Colon cancer HCT116,75 ± 10 nM
same,IC50,NSCLC NCI-H1975,500 nM
same,HSP70 levels,HCT116 tumor xenografts,significant increase
same,HSP90 protein levels,HCT116 tumor xenografts,dramatic decrease
same,acetylated α-tubulin levels,HCT116 tumor xenografts,increased levels
same,pan H3 acetylation,HCT116 tumor xenografts,strong induction
same,IC50,[1],190 ± 20 nM
same,IC50,[2],43 to 500 nM
same,IC50,Breast cancer MCF-7,190 nM
same,apoptosis (Annexin V positive cells),lymphoma cell lines,moderate apoptosis in three out of eight lymphoma cell lines
same,Acetyl tub./tubulin,"[3]; 0,2 µM","1,181"
same,Acetyl tub./tubulin,"[3]; 0,04 µM","0,649"
same,Acetyl tub./tubulin,[3]; 1 µM,"2,012"
same,Acetyl tub./tubulin,"[3]; 0,008 µM","0,588"
same,IC50,"[3]; Homo sapiens, NCI-H460, 3 h exposure, Western blot densitometry, read-out: IC50 for increasing the acetylation of tubulin",200 nM
same,IC50,[4],190 ± 20 nM
same,IC50,GCB-DLBCL OCI-Ly8,240 nM
same,IC50,GCB-DLBCL OCI-Ly7,560 nM
same,IC50,ABC-DLBCL U2932,800 nM
same,IC50,[5],260 nM
same,IC50,GCB-DLBCL DOHH2,46 ± 10 nM
same,Acetyl H4/H4,"[6]; 0,2 µM, NCI-H460","0,3352"
same,Acetyl H4/H4,"[6]; 0,04 µM, NCI-H460","0,3092"
same,Acetyl H4/H4,"[6]; 1 µM, NCI-H460","0,3757"
same,IC50,"[6]; Homo sapiens, NCI-H460, 3 h exposure, Western blot densitometry, read-out: IC50 for increasing the acetylation of histone H4",4.8 nM
same,fold more potent in increasing acetylation of histone H4 than of tubulin,[6]; NCI-H460,40 fold
same,IC50,[7],49 nM
same,tumor progression / tumor volumes,GCB-DLBCL model DOHH2,decreased tumor volumes; also recorded: significant delay in tumor progression
same,IC50,Ovarian cancer A2780,43 ± 10 nM
